Test results from patent publication US6689762B1, “Composition and methods for treatment of HIV infection” (Enzon Pharmaceuticals, Inc., priority 1998, dated 2004).
“And” between values parts separate entries of the source, which are not always exact repeats. Equal values may be shown once.

How the values were obtained:
[1] = tested on: HIV-RNA in HIV-1 infected CEM/0 T-cell pellets; assay: HIV-1 quantitative RNA assay (HIV-1 Monitor) in CEM/0 T-cell pellets; type: cell-based; settings: for mean, X3: Table 7; for N*: Table 7, per specimen, day 7, PEG 0.400 IU/ml, SAQ 25 uM, AZT 1 uM, MISID 0.685 uM, combinations PEG 0.233 IU/ml + SAQ 14.52 uM; for % control: Table 7 and text of Experiment 9; for Log 10 N: Table 2, per flask
Method: This experiment is carried out using a similar procedure, and the same concentrations of materials as in Experiment 1, however the exposure of HIV-RNA in T-cell pellets to a combination of PEG-ASNase and Saquinavir is measured. […] It should be noted that “PEG” in Table 2 represents PEG-ASNase.
The cell line used for these studies is CEM/0, a human T-cell leukemic cell line. PEG-ASNase (ONCASPAR) is provided by Rhone-Poulenc Rorer. Saquinavin is commercially available. AZT is purchased from Sigma. MISID, a ribonucleotide reductase inhibitor, is synthesized as indicated in Nandy P, Lien E J, Avramis V I, Med. Chem. Res. 1995, 5:664-679. RPMI-1640 media (Irvine Scientific, Irvine, Calif.), is enriched with 10% Fetal Calf Serum (Gemini Biosource, Calabasas, Calif.), 5% 1M Hepes Buffer solution and 5% Non-essential amino acids (Irvine Scientific, Irvine, Calif.). The drug concentrations used are as follows:
Briefly, 3×10^6 cells/ml are stimulated with PHA+ media for 48 hours at 37° C. with 5% CO2. Also, the same number of cells are incubated in PHA free media for 48 hours to serve as the negative control. At this point the cells are inoculated with the HIV-1 virus as per standard protocol. Note that in this experiment, the HIV containing supernatant from the PHA-stimulated healthy human peripheral mononuclear cells (PBMC) is not removed from the PHA-stimulated CEM/0 cell culture. […] These virus particles are released by already infected T-cells and/or lymph nodes of patients.
The experimental drugs are added to the cells in the appropriate concentrations at the same time as viral inoculation or 90 minutes after the viral incubation, a time sufficient for the T-cells to be infected and start producing new HIV-1 virus particles. The control cells are resuspended in drug-free media for the duration of the exposure which lasted seven days. Aliquots of media from the control flasks only are obtained on day 5 post Rx. At day seven, three 1 ml each, aliquots of media are removed from the flasks and stored under liquid nitrogen. In addition, the remaining cells are split into three and then pelleted and stored at −80° C.
The samples produced from this experiment are itemized. The cell pellets of the cellular cultures (see Experiment 7) from the 90 minute viral incubation flasks are assayed for HIV-RNA quantitative assay using a kit for the assay, non-radioactive. The standard curve is determined and the HIV-RNA levels for the experimental samples are calculated and reported previously.

CEM/0 cells [2] = assay: Sequential and concurrent combination cytotoxicity of PEG-ASNase and Saquinavir; type: cell-based, human; settings: CEM/0 T-cells
Method: In this experiment, the described range of concentrations is used to investigate the combined regimen of Saquinavir and PEG-ASNase. For the sequential combination studies of PEG-ASNase followed by Saquinavir, cells are incubated with the concentrations provided below of PEG-ASNase for 24 hours. Then Saquinavir, in the concentrations provided below, is added to the appropriate cells for an additional twenty-four (24) hours, bringing the total exposure time to forty-eight (48) hours. The exposure involved 2×10^5 cells/ml being incubated in a tissue culture flask with concentrations of the drugs investigated as provided below. […] The drug concentrations used are as follows:
(§1) In all in vitro studies, the negative control cells are incubated in a drug-free media for the same duration and under the same conditions as the experimental samples. Cell density is measured via cell counting using a Coulter Counter coupled with a Coulter Channelyzer for each of the experimental flasks at 24, 48 and 72 hours after incubation. Additionally, Trypan Blue Exclusion tests are performed for each of these experimental conditions. Cell numbers are corrected for the viability determined by the Trypan Blue test and presented as a percentage of the untreated control.
The reverse sequence is also tested. […] Saquinavir is administered and the cells incubated for twenty-four (24) hours followed by addition of PEG-ASNase and an additional incubation period of twenty-four (24) hours, bringing the total exposure time to forty-eight (48) hours. Other than the drug sequence, the methodology is the same as that mentioned immediately above. The concurrent combination regimen is also tested using the same methodology. […] The concurrent combined methodology experiment had the samples exposed to forty-eight (48) hours of concurrent combined exposure.

CEM/0 cells [3] = assay: cells; type: cell-based, human; settings: for IC50: Homo sapiens, CCRF-CEM
Description: A human leukemic T-cell line, hereafter referred to as CEM/0 is used for this experiment. PEG-ASNase is obtained from Rhone-Poulenc Rorer Pharmaceuticals Inc under the tradename Oncaspar®. Saquinavir is obtained from Roche Laboratories under the tradename Invirase™. RPMI-1640 media obtained from Irvine Scientific, Irvine Calif. is enriched with 10% Fetal Calf Serum obtained from Gemini Biosource, Calabasas, Calif., 5% 1M Hepes buffer solution and 5% non-essential amino acids obtained from Irvine Scientific, Irvine Calif.
An experiment is carried out to determine the cytotoxicity of Saquinavir and PEG-ASNase. For determining the cytotoxicity of either compound alone, 2×10^5 cells/ml are incubated in 24-well plates with the following drug concentrations:
as §1

[4] = tested on: asparagine, glutamine, and aspartic acid levels of CEM/0 cells; assay: Determination of amino acid levels after PEG-ASNase exposure (HPLC); type: cell-based, human; settings: 24 hours exposure
Method: Experiments to determine the amino acid level in cell suspensions and cell media are performed to determine the effect of PEG-ASNase on the amino acid levels, particularly the levels of asparagine, glutamine, and aspartic acid.
Samples of 50 μl media and 10 μl of 1 mM aminoadopic acid are added to 450 μl of cold methanol in 1.5 ml microfuge tubes. The mixtures are vortexed and centrifuged at 8700 g for two minutes. The supernatants are transferred to borosilicate glass test tubes (13×100 mm) and lyophilized. The specimens are stored at −20° C. until they are analyzed by HPLC. Prior to HPLC analysis, the samples are dissolved in a buffer containing 95% […] disodium hydrogen phosphate and 5% acetonitrile.

Cc1cn([C@H]2C[C@H](N=[N+]=[N-])[C@@H](CO)O2)c(=O)[nH]c1=O [AZT, zidovudine]
mean, X3 [1]: 102473 copies/cell pellet
N* [1]: 107269 copies/cell pellet and 97933 copies/cell pellet and 102217 copies/cell pellet
% control [1]: 48%

CC(C)(C)NC(=O)[C@@H]1C[C@@H]2CCCC[C@@H]2CN1C[C@@H](O)[C@H](Cc1ccccc1)NC(=O)[C@H](CC(N)=O)NC(=O)c1ccc2ccccc2n1 [Saquinavir]
IC50 (CEM/0 cells [2]; Homo sapiens, CCRF-CEM, read-out: IC50 in combination, Saquinavir part, concurrent combination of PEG-ASNase and Saquinavir): 14.5 µM
IC50 (CEM/0 cells [2]; read-out: IC50 in combination, Saquinavir part, concurrent combination of PEG-ASNase and Saquinavir, listed as SAQ): 14.5 µM
IC50 (CEM/0 cells [3]; 72 h, read-out: IC50 in CEM/0 cells): 26 µM
IC50 (CEM/0 cells [3]; read-out: IC50 in CEM/0 cells): 21 to 28 µM
IC50 (CEM/0 cells [3]; read-out: Saquinavir IC50 alone): 25 µM
kill compared to untreated control (CEM/0 cells [3]; Saquinavir 10 μM): 8.76%
kill compared to control cells (CEM/0 cells [3]; Saquinavir 100 μM, highest concentration tested): 99.50%
cell kill (CEM/0 cells [3]; Saquinavir 0.001 to 1 μM): no cell kill
inhibition of HIV-1 RNA production in comparison with the control ([1]; Experiment 5 text): approximately 36%
Log 10 N ([1]; listed as SAQ): 5.06 and 5.09
mean, X3 [1]: 125628 copies/cell pellet
N* ([1]; listed as SAQ): 138583 copies/cell pellet and 109522 copies/cell pellet and 128780 copies/cell pellet
% control [1]: 59%

B1: PEG-ASNase: asparaginase conjugated with polyethylene glycol (PEG); sold under the name ONCASPAR by Rhône-Poulenc Rorer (conjugate, UniProt P00805 23-348, looked up)
L-asparaginase 2: LPNITILATGGTIAGGGDSATKSNYTVGKVGVENLVNAVPQLKDIANVKGEQVVNIGSQDMNDNVWLTLAKKINTDCDKTDGFVITHGTDTMEETAYFLDLTVKCDKPVVMVGAMRPSTSMSADGPFNLYNAVVTAADKASANRGVLVVMNDTVLDGRDVTKTNTTDVATFKSVNYGPLGYIHNGKIDYQRTPARKHTSDTPFDVSKLNELPKVGIVYNYANASDLPAKALVDAGYDGIVSAGVGNGNLYKSVFDTLATAAKTGTAVVRSSRVPTGATTQDAEVDDAKYGFVASGTLNPQKARVLLQLALTQTKDPQQIQQIFNQY
modifications: PEG conjugate (pegaspargase)
notes: asparaginase conjugated with polyethylene glycol (PEG); sold under the name ONCASPAR by Rhône-Poulenc Rorer
IC50 in combination, PEG-ASNase part (CEM/0 cells [2]; concurrent combination of PEG-ASNase and Saquinavir): 0.233 IU/ml
IC50 in combination, PEG-ASNase part (CEM/0 cells [2]; concurrent combination of PEG-ASNase and Saquinavir, listed as PEG): 0.23 IU/ml
glutamine level, % of the untreated control ([4]; highest PEG-ASNase concentration): less than 3.0%
asparagine level, % of the untreated control ([4]; various PEG-ASNase concentrations): less than 3.0%
PEG-ASNase IC50 alone (CEM/0 cells [3]; CEM/0 T-cells, single agent): 0.4 IU/ml and 0.40 IU/ml
concentration that produces a cytostatic condition (CEM/0 cells [3]; CEM/0 cells in vitro, over 72 hours): approximately 0.5 IU/ml
effect on cell growth (CEM/0 cells [3]; PEG-ASNase 0.03, 0.1, 0.2, 0.3 and 0.4 IU/ml, compared to control growth rate): marginally effective in preventing cell growth
Log 10 N ([1]; listed as PEG): 5.26 and 5.42
mean, X3 [1]: 173448 copies/cell pellet
N* ([1]; listed as PEG): 183977 copies/cell pellet and 156304 copies/cell pellet and 180062 copies/cell pellet
% control [1]: 81%
effect on HIV-RNA in cell pellets ([1]; text of Experiments 5, 6 and 9): no apparent effect
